{"source": "paper PMC10515483", "about": "“Structure–Reactivity Studies of 2-Sulfonylpyrimidines Allow Selective Protein Arylation” (Bioconjugate Chemistry, 2023)", "experiment": "NACME arylation rate constant (NMR)", "assay_type": "physicochemical", "excerpt": "We employed nuclear magnetic resonance (NMR) and UV–vis to quantify the reactivity of our 2-SP derivatives and other representative electrophiles (Figure 2) against cysteine. NMR allowed straightforward determination of reaction rate constants through dual monitoring of the consumption of the warhead and formation of the product by integration of their respective NMR signals (Figures S1–S3). It simultaneously provided a direct readout on reaction specificity and hydrolytic stability of the warhead. All measurements were carried out in KPi buffer in the presence of 5% d^6-dmso, which is generally well-tolerated by a wide range of proteins in in vitro studies. N-acetylcysteine methylester (NACME) and L-glutathione (GSH) are useful model cysteine nucleophiles for in vitro studies of electrophilic agents.[32] Mixing reference electrophile 2-methylsulfonylpyrimidine (4q) with NACME or GSH in a 1:10 ratio (pseudo-first-order conditions) allowed extraction of accurate and reproducible second order rate constants (k). At pH 7.0, quantitative arylation of NACME occurred […] (k ≈ 4.5 × 10^–2 M^–1 s^–1), whereas GSH reacted approximately 3 times slower (k ≈ 1.6 × 10^–2 M^–1 s^–1; Figures S1–S3). […]\ntransferred to the NMR instrument for acquisition. 1H spectra (16 scans) were recorded every 10 minutes under water suppression conditions. Following acquisition, spectra were analysed using […]"}
{"smiles": "CS(=O)(=O)c1ncccn1", "note": "[4q, 2-methylsulfonylpyrimidine]", "values": [{"measurement": "times faster at pH 7.0 vs 6.5", "setting": "NACME", "result": "approximately 5 times"}, {"measurement": "second order rate constant k with NACME", "setting": "pH 7.0, 1:10 ratio", "result": "≈ 4.5 × 10^–2 M^–1 s^–1"}]}
